In patent publication US20260294915A1, “COMBINATION THERAPY COMPRISING A MAT2A INHIBITOR AND A TOPOISOMERASE INHIBITOR, A SPLICING INHIBITOR SULFONAMIDE, OR A KIF18 INHIBITOR” (IDEAYA BIOSCIENCES, INC., priority 2023, published 2026):

Key:
Experiment in all cases: 10-day proliferation (CTG), Compound B titration + 1000 nM Compound A, Bliss (Example 2)
Type in all cases: cell-based
NCI-H838 = test system: NCI-H838; parameters: key: GDI, -100 to 100; 0 = cell number at T0
Procedure: (§1) A 10-day proliferation assay was performed in a panel of 5 MTAP-deficient and 2 wild type non-small cell lung and bladder cancer cell lines. Optimal cell seeding for all cell lines was determined by assessing the growth over a range of seeding densities in a 384-well format to identify conditions that permitted proliferation for 10 days. Cells were then plated at the optimal seeding density and treated with 20-point, two-fold dilution series of Compound B in combination with a 1000 nM fixed concentration of Compound A. Single agent titrations for Compound A and Compound B were included for comparison. Concentrations tested for Compound A and Compound B alone or in combination ranged from 0.038 nM to 20,000 nM. A plate of cells was harvested at the time of compound addition to quantify the number of cells at the start of the combination (T0). For cell quantification, the harvested cells were lysed with Promega CellTiter-Glo (CTG) reagent according to the manufacturer's protocol and the chemiluminescent signal was detected as described in Example 1 above. Cells were incubated with the drug combinations at 37° C. with 5% CO2 for 10 days. Cells were then lysed with CTG and the chemiluminescent signal was measured.
(§2) CTG values obtained after the 10-day treatment were background subtracted and expressed as a percent of the T0 value set at 100%. Data were plotted against compound concentration and fit with a four-parameter equation to generate single agent dose response curves. Percent inhibition was determined for each combination and single agent concentration compared to a DMSO control. In addition, the overall net growth or death of the cells was calculated and reported as a growth death index (GDI) value on a scale of −100 to 100 with the midpoint (0) being the number of cells at the beginning of the combination (T0).
(§3) Predicted inhibition was calculated using (Ea+Eb)−(Ea*Eb) where E equals the effect (inhibition) of each single agent (a and b). A difference between the observed inhibition percentage and the predicted inhibition percentage greater than 10% was considered synergistic. A Bliss score was only calculated for combinations eliciting >20% growth inhibition (GDI value <80). Since Bliss is calculated based on growth inhibition, scores within cytotoxic dose ranges may not accurately reflect synergistic cytotoxicity.
(§4) Synergy was measured across the Compound B titration with 1000 nM Compound A by Bliss Independence analysis. Bliss scores >10 are indicated by “*” and are considered synergistic. […] Synergy as reported using Bliss may be underrepresented within cytotoxic dose ranges. Growth death index values are shown for the combination titration and each single agent Compound A (Cmpd A) and Compound B (Cmpd B) on a scale of −100 to 100 with the midpoint (0) being the number of cells at the beginning of the combination (T0).

RT112/84 = test system: RT112/84; parameters: key: GDI, -100 to 100; 0 = cell number at T0
Procedure: as §1, §2, §3, §4

SW900 = test system: SW900; parameters: key: GDI, -100 to 100; 0 = cell number at T0
Procedure: as §1, §2, §3, §4

UMUC11 = test system: UMUC11; parameters: key: GDI, -100 to 100; 0 = cell number at T0
Procedure: as §1, §2, §3, §4

UMUC5 = test system: UMUC5; parameters: key to GDI: GDI, -100 to 100; 0 = cell number at T0
Procedure: as §1, §2, §3, §4

TCCSUP = test system: TCCSUP; parameters: key: GDI on scale −100 to 100; 0 = cell number at T0
Procedure: as §1, §2
as §3, with “Synergistic growth inhibition was assessed using the Bliss Independence model for each point of the Compound B titration in combination with 1000 nM Compound A. The observed growth inhibition at each point was compared to the predicted inhibition based on the additive activity of each single agent. Predicted” for “Predicted”
Synergy was measured across the Compound B titration with 1000 nM Compound A by Bliss Independence analysis. Bliss scores >10 are indicated by “*” and are considered synergistic. […] Synergy as reported using Bliss may be underrepresented within cytotoxic dose ranges. Growth death index values are shown for the combination titration and each single agent Compound A (Cmpd A) and Compound B (Cmpd B) on a scale of −100 to 100 with the midpoint (0) being the number of cells at the beginning of the combination (T0). Bliss and GDI values are shown for five MTAP-deficient cell lines: NCI-1H520 (6A), TCCSUP (6B).

[1] = Cmpd B 0.04 nM, combo: + 1000 nM Cmpd A
[2] = Cmpd B 0.1 nM, combo: + 1000 nM Cmpd A
[3] = Cmpd B 0.2 nM, combo: + 1000 nM Cmpd A
[4] = Cmpd B 0.3 nM, combo: + 1000 nM Cmpd A
[5] = Cmpd B 0.6 nM, combo: + 1000 nM Cmpd A
[6] = Cmpd B 1.2 nM, combo: + 1000 nM Cmpd A
[7] = Cmpd B 2.4 nM, combo: + 1000 nM Cmpd A
[8] = Cmpd B 4.9 nM, combo: + 1000 nM Cmpd A
[9] = Cmpd B 9.8 nM, combo: + 1000 nM Cmpd A
[10] = Cmpd B 19.5 nM, combo: + 1000 nM Cmpd A
[11] = Cmpd B 39.1 nM, combo: + 1000 nM Cmpd A
[12] = Cmpd B 78.1 nM, combo: + 1000 nM Cmpd A
[13] = Cmpd B 156.3 nM, combo: + 1000 nM Cmpd A
[14] = Cmpd B 312.5 nM, combo: + 1000 nM Cmpd A
[15] = Cmpd B 625 nM, combo: + 1000 nM Cmpd A
[16] = Cmpd B 1250 nM, combo: + 1000 nM Cmpd A
[17] = Cmpd B 2500 nM, combo: + 1000 nM Cmpd A
[18] = Cmpd B 5000 nM, combo: + 1000 nM Cmpd A
[19] = Cmpd B 10000 nM, combo: + 1000 nM Cmpd A
[20] = Cmpd B 20000 nM, combo: + 1000 nM Cmpd A

Nc1nc(=O)n(-c2ccccc2Cl)c2nc(C(F)(F)F)ccc12 [Compound A] gave a GDI (NCI-H838; single agent, 1000 nM Cmpd A) of 52, a GDI (RT112/84; single agent, 1000 nM Cmpd A) of 60 and a GDI (SW900; single agent, 1000 nM Cmpd A) of 99. The GDI (UMUC11; single agent, 1000 nM Cmpd A) was 92, the GDI (UMUC5; single agent, 1000 nM Cmpd A) was 59 and the GDI (TCCSUP; single agent, 1000 nM Cmpd A) was 88.

Cc1cc(NC(=O)c2ccc(NS(=O)(=O)CCO)cc2N2CCC3(CC2)CC3)nc(N2CCC(F)(F)CC2)n1 [Compound B, N-(2-(4,4-difluoropiperidin-1-yl)-6-methylpyrimidin-4-yl)-4-((2-hydroxyethyl)sulfonamido)-2-(6-azaspiro[2.5]octan-6-yl)benzamide] gave a GDI (NCI-H838; [1]) of 100, a GDI (NCI-H838; [2]) of 100 and a GDI (NCI-H838; [3]) of 100. For the same molecule, the GDI (NCI-H838; [4]) was 100, the GDI (NCI-H838; [5]) was 100 and the GDI (NCI-H838; [6]) was 100. The GDI (NCI-H838; [7]) was 100, the GDI (NCI-H838; [8]) was 100 and the GDI (NCI-H838; [9]) was 100. For the same molecule, the GDI (NCI-H838; [10]) was 100, the GDI (NCI-H838; [11]) was 100 and the GDI (NCI-H838; [12]) was 100. It also gave a GDI (NCI-H838; [13]) of 74, a GDI (NCI-H838; [14]) of 65 and a GDI (NCI-H838; [15]) of 55. The GDI (NCI-H838; [16]) was 48, the GDI (NCI-H838; [17]) was 58 and the GDI (NCI-H838; [18]) was 87. The GDI (NCI-H838; [19]) was 61, the GDI (NCI-H838; [20]) was −1 and the GDI (RT112/84; [1]) was 100. It also gave a GDI (RT112/84; [2]) of 100, a GDI (RT112/84; [3]) of 100 and a GDI (RT112/84; [4]) of 100. It also gave a GDI (RT112/84; [5]) of 100, a GDI (RT112/84; [6]) of 100 and a GDI (RT112/84; [7]) of 100. For the same molecule, the GDI (RT112/84; [8]) was 100, the GDI (RT112/84; [9]) was 100 and the GDI (RT112/84; [10]) was 100. It also gave a GDI (RT112/84; [11]) of 100, a GDI (RT112/84; [12]) of 100 and a GDI (RT112/84; [13]) of 63. For the same molecule, the GDI (RT112/84; [14]) was 30, the GDI (RT112/84; [15]) was 24 and the GDI (RT112/84; [16]) was 31. The GDI (RT112/84; [17]) was 31, the GDI (RT112/84; [18]) was 33 and the GDI (RT112/84; [19]) was 2. For the same molecule, the GDI (RT112/84; [20]) was −86, the GDI (SW900; [1]) was 100 and the GDI (SW900; [2]) was 100. It also gave a GDI (SW900; [3]) of 100, a GDI (SW900; [4]) of 100 and a GDI (SW900; [5]) of 100. For the same molecule, the GDI (SW900; [6]) was 100, the GDI (SW900; [7]) was 99 and the GDI (SW900; [8]) was 100. The GDI (SW900; [9]) was 100, the GDI (SW900; [10]) was 100 and the GDI (SW900; [11]) was 99. For the same molecule, the GDI (SW900; [12]) was 100, the GDI (SW900; [13]) was 100 and the GDI (SW900; [14]) was 100. For the same molecule, the GDI (SW900; [15]) was 86, the GDI (SW900; [16]) was 89 and the GDI (SW900; [17]) was 83. For the same molecule, the GDI (SW900; [18]) was 75, the GDI (SW900; [19]) was 64 and the GDI (SW900; [20]) was 28. It also gave a GDI (UMUC11; [1]) of 100, a GDI (UMUC11; [2]) of 100 and a GDI (UMUC11; [3]) of 100. The GDI (UMUC11; [4]) was 100, the GDI (UMUC11; [5]) was 100 and the GDI (UMUC11; [6]) was 100. It also gave a GDI (UMUC11; [7]) of 100, a GDI (UMUC11; [8]) of 100 and a GDI (UMUC11; [9]) of 100. It also gave a GDI (UMUC11; [10]) of 100, a GDI (UMUC11; [11]) of 100 and a GDI (UMUC11; [12]) of 100. It also gave a GDI (UMUC11; [13]) of 100, a GDI (UMUC11; [14]) of 87 and a GDI (UMUC11; [15]) of 72. The GDI (UMUC11; [16]) was 70, the GDI (UMUC11; [17]) was 74 and the GDI (UMUC11; [18]) was 63. For the same molecule, the GDI (UMUC11; [19]) was 32, the GDI (UMUC11; [20]) was −88 and the GDI (UMUC5; [1]) was 97. It also gave a GDI (UMUC5; [2]) of 100, a GDI (UMUC5; [3]) of 100 and a GDI (UMUC5; [4]) of 100. It also gave a GDI (UMUC5; [5]) of 100, a GDI (UMUC5; [6]) of 96 and a GDI (UMUC5; [7]) of 100. For the same molecule, the GDI (UMUC5; [8]) was 99, the GDI (UMUC5; [9]) was 100 and the GDI (UMUC5; [10]) was 100. For the same molecule, the GDI (UMUC5; [11]) was 100, the GDI (UMUC5; [12]) was 100 and the GDI (UMUC5; [13]) was 75. The GDI (UMUC5; [14]) was 26, the GDI (UMUC5; [15]) was 17 and the GDI (UMUC5; [16]) was 16. For the same molecule, the GDI (UMUC5; [17]) was 15, the GDI (UMUC5; [18]) was 5 and the GDI (UMUC5; [19]) was −87. For the same molecule, the GDI (UMUC5; [20]) was −91, the “single agent dose sufficient to maximally inhibit cell growth” value (UMUC5; single agent) was 5 µM and the GDI (TCCSUP; [1]) was 100. The GDI (TCCSUP; [2]) was 100, the GDI (TCCSUP; [3]) was 100 and the GDI (TCCSUP; [4]) was 100. It also gave a GDI (TCCSUP; [5]) of 100, a GDI (TCCSUP; [6]) of 100 and a GDI (TCCSUP; [7]) of 100. For the same molecule, the GDI (TCCSUP; [8]) was 100, the GDI (TCCSUP; [9]) was 100 and the GDI (TCCSUP; [10]) was 100. It also gave a GDI (TCCSUP; [11]) of 100, a GDI (TCCSUP; [12]) of 76 and a GDI (TCCSUP; [13]) of 38. For the same molecule, the GDI (TCCSUP; [14]) was 15, the GDI (TCCSUP; [15]) was 8 and the GDI (TCCSUP; [16]) was 10. The GDI (TCCSUP; [17]) was 11, the GDI (TCCSUP; [18]) was 6 and the GDI (TCCSUP; [19]) was −5. For the same molecule, the GDI (TCCSUP; [20]) was −95.
